Literature values, collected in PMC2857392 (Biochemistry, 2010).

Key:
[1] = target: Stx1 B-subunit (Stx1B); details: read-out: dissociation constant (Kd) for B-subunit monomer
[2] = target: Stx1B

Molecule	Kd [1] [µM]	Kd [2] [µM]
OC[C@H]1O[C@H](O[C@@H]2[C@H](O)[C@@H](O)[C@H](O[C@H]3[C@H](O)[C@@H](O)C(O)O[C@@H]3CO)O[C@@H]2CO)[C@H](O)[C@@H](O)[C@H]1O (stereo partly drawn) [Pk trisaccharide, Galα1-4Galβ1-4Glc]	500 to 1000	4800
globotriaosylceramide [Gb3]		0.003
